Source: PubChem BioAssay AID328 (DTP/NCI, 2004)
Several values for one entry are separate records, joined by “and”; a condition that tells them apart may be missing. Identical values can stand only once. Inconclusive results and toxic doses are left out. The calls were made as follows: active = survival T/C of 150% or more; inactive = T/C below 125% in these data.

Tested on: BDF1 mice, P388 leukemia ip, median survival T/C
Test: NCI In Vivo Anticancer Drug Screen. Data for tumor model P388 Leukemia (intraperitoneal) in B6D2F1 (BDF1) mice
Settings: endpoint: median survival time, higher = longer survival
Procedure, shortened: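 Compound-treated tumour-bearing mice were compared with vehicle-treated controls. Survival was recorded, and the value is the treated-group measurement divided by the control-group measurement (T/C).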

[1] = dose: 50.0 mg/kg/injection, schedule: Q01DX009 (ip), vehicle: saline with Tween-80
[2] = dose: 25.0 mg/kg/injection, schedule: Q01DX009 (ip), vehicle: saline with Tween-80
[3] = dose: 100.0 mg/kg/injection, schedule: Q01DX009 (ip), vehicle: saline with Tween-80
[4] = dose: 100.0 mg/kg/injection, schedule: Q04DX003 (ip), vehicle: saline with Tween-80
[5] = dose: 200.0 mg/kg/injection, schedule: Q04DX003 (ip), vehicle: saline with Tween-80

Measured: T/C

CC(=O)Nc1cc(NC(C)=O)cc(N(CCO)CCO)c1
inactive: dose: 3.12 mg/kg/injection, schedule: Q01DX009 (ip), vehicle: water 99 % of control | dose: 6.25 mg/kg/injection, schedule: Q01DX009 (ip), vehicle: water 90 % of control and 111 % of control | dose: 12.5 mg/kg/injection, schedule: Q01DX009 (ip), vehicle: water 93 % of control and 101 % of control | dose: 25.0 mg/kg/injection, schedule: Q01DX009 (ip), vehicle: water 97 % of control and 101 % of control | dose: 25.0 mg/kg/injection, schedule: Q04DX003 (ip), vehicle: water 89 % of control | dose: 50.0 mg/kg/injection, schedule: Q01DX009 (ip), vehicle: water 117 % of control | dose: 50.0 mg/kg/injection, schedule: Q04DX003 (ip), vehicle: water 100 % of control | dose: 100.0 mg/kg/injection, schedule: Q04DX003 (ip), vehicle: water 104 % of control | dose: 200.0 mg/kg/injection, schedule: Q04DX003 (ip), vehicle: water 112 % of control | dose: 400.0 mg/kg/injection, schedule: Q04DX003 (ip), vehicle: water 108 % of control

CC(N)COCc1ccccc1 (stereo not drawn)
inactive: dose: 25.0 mg/kg/injection, schedule: Q04DX003 (ip), vehicle: saline 104 % of control | dose: 50.0 mg/kg/injection, schedule: Q04DX003 (ip), vehicle: saline 95 % of control

CCS(=O)(=O)c1cccc2nncn12
inactive: dose: 100.0 mg/kg/injection, schedule: Q01DX001 (ip), vehicle: saline with Tween-80 108 % of control | dose: 200.0 mg/kg/injection, schedule: Q01DX001 (ip), vehicle: saline with Tween-80 106 % of control | dose: 400.0 mg/kg/injection, schedule: Q01DX001 (ip), vehicle: saline with Tween-80 100 % of control

Nc1ccc(NS(=O)(=O)c2ccccc2)nc1
inactive: dose: 100.0 mg/kg/injection, schedule: Q01DX009 (ip), vehicle: Klucel (hydroxypropylcellulose) (HPC) 100 % of control | dose: 100.0 mg/kg/injection, schedule: Q04DX003 (ip), vehicle: Klucel (hydroxypropylcellulose) (HPC) 100 % of control | dose: 200.0 mg/kg/injection, schedule: Q01DX009 (ip), vehicle: Klucel (hydroxypropylcellulose) (HPC) 100 % of control | dose: 200.0 mg/kg/injection, schedule: Q04DX003 (ip), vehicle: Klucel (hydroxypropylcellulose) (HPC) 100 % of control | dose: 400.0 mg/kg/injection, schedule: Q01DX009 (ip), vehicle: Klucel (hydroxypropylcellulose) (HPC) 95 % of control | dose: 400.0 mg/kg/injection, schedule: Q04DX003 (ip), vehicle: Klucel (hydroxypropylcellulose) (HPC) 100 % of control

Cc1ccc(S(=O)(=O)NC(=O)OC23COCN2COC3)cc1
inactive: [1] 116 % of control

CCCCCCCC(=O)Nc1cc(C(F)(F)F)ccc1Cl
inactive: dose: 100.0 mg/kg/injection, schedule: Q04DX003 (ip), vehicle: other 100 % of control | dose: 200.0 mg/kg/injection, schedule: Q04DX003 (ip), vehicle: other 109 % of control | dose: 400.0 mg/kg/injection, schedule: Q04DX003 (ip), vehicle: other 104 % of control

CCNC(C)(C)C(SS(=O)(=O)O)c1ccc(Cl)s1 (stereo not drawn)
inactive: [2] 103 % of control | [1] 95 % of control and 121 % of control | dose: 75.0 mg/kg/injection, schedule: Q01DX009 (ip), vehicle: saline with Tween-80 103 % of control | [3] 102 % of control | [4] 95 % of control | dose: 200.0 mg/kg/injection, schedule: Q01DX009 (ip), vehicle: saline with Tween-80 102 % of control | [5] 94 % of control | dose: 300.0 mg/kg/injection, schedule: Q01DX009 (ip), vehicle: saline with Tween-80 101 % of control

CCOP1(=S)OCC(C)O1 (stereo not drawn)
inactive: dose: 100.0 mg/kg/injection, schedule: Q04DX002 (ip), vehicle: saline with Tween-80 105 % of control | dose: 200.0 mg/kg/injection, schedule: Q04DX002 (ip), vehicle: saline with Tween-80 99 % of control | dose: 400.0 mg/kg/injection, schedule: Q04DX002 (ip), vehicle: saline with Tween-80 105 % of control

Cn1nc([N+](=O)[O-])sc1=N
inactive: dose: 50.0 mg/kg/injection, schedule: Q01DX001 (ip), vehicle: saline sonified 105 % of control | dose: 100.0 mg/kg/injection, schedule: Q01DX001 (ip), vehicle: saline sonified 105 % of control | dose: 200.0 mg/kg/injection, schedule: Q01DX001 (ip), vehicle: saline sonified 110 % of control

O=C1CN(Cc2ccccc2)CC(=O)N2Cc3ccccc3CN12
inactive: dose: 100.0 mg/kg/injection, schedule: Q01DX005 (ip), vehicle: saline with Tween-80 101 % of control | dose: 200.0 mg/kg/injection, schedule: Q01DX005 (ip), vehicle: saline with Tween-80 92 % of control

CC(C)=CCOc1ccc(C(=O)/C=C/c2ccccc2)c(O)c1
inactive: dose: 1.25 mg/kg/injection, schedule: Q01DX009 (ip), vehicle: Klucel (hydroxypropylcellulose) (HPC) 108 % of control | dose: 2.5 mg/kg/injection, schedule: Q01DX009 (ip), vehicle: Klucel (hydroxypropylcellulose) (HPC) 101 % of control | dose: 5.0 mg/kg/injection, schedule: Q01DX009 (ip), vehicle: Klucel (hydroxypropylcellulose) (HPC) 107 % of control | dose: 10.0 mg/kg/injection, schedule: Q01DX009 (ip), vehicle: Klucel (hydroxypropylcellulose) (HPC) 91 % of control | dose: 20.0 mg/kg/injection, schedule: Q01DX009 (ip), vehicle: Klucel (hydroxypropylcellulose) (HPC) 104 % of control | dose: 40.0 mg/kg/injection, schedule: Q01DX009 (ip), vehicle: Klucel (hydroxypropylcellulose) (HPC) 89 % of control

C[N+](C)(C)C.N=C=O.N=C=O.N=C=O.N=C=O.[Co+2]
inactive: dose: 2.5 mg/kg/injection, schedule: Q01DX009 (ip), vehicle: saline 88 % of control | dose: 5.0 mg/kg/injection, schedule: Q01DX001 (ip), vehicle: other 86 % of control | dose: 5.0 mg/kg/injection, schedule: Q01DX009 (ip), vehicle: saline with Tween-80 100 % of control | dose: 5.0 mg/kg/injection, schedule: Q04DX003 (ip), vehicle: saline with Tween-80 95 % of control | dose: 10.0 mg/kg/injection, schedule: Q01DX001 (ip), vehicle: other 95 % of control | dose: 10.0 mg/kg/injection, schedule: Q01DX009 (ip), vehicle: saline with Tween-80 115 % of control and 116 % of control | dose: 10.0 mg/kg/injection, schedule: Q04DX003 (ip), vehicle: saline with Tween-80 109 % of control | dose: 20.0 mg/kg/injection, schedule: Q01DX001 (ip), vehicle: other 100 % of control | dose: 20.0 mg/kg/injection, schedule: Q01DX009 (ip), vehicle: saline with Tween-80 95 % of control and 115 % of control | dose: 20.0 mg/kg/injection, schedule: Q01DX009 (ip), vehicle: saline 95 % of control | dose: 20.0 mg/kg/injection, schedule: Q04DX003 (ip), vehicle: saline with Tween-80 95 % of control | dose: 40.0 mg/kg/injection, schedule: Q01DX009 (ip), vehicle: saline 117 % of control

O=c1oc2ccccc2c2c1C(c1ccccc1)C=C(c1ccccc1)O2 (stereo not drawn)
inactive: dose: 50.0 mg/kg/injection, schedule: Q04DX003 (ip), vehicle: saline with Tween-80 96 % of control | [4] 91 % of control | [5] 91 % of control | dose: 400.0 mg/kg/injection, schedule: Q04DX003 (ip), vehicle: saline with Tween-80 95 % of control

COc1ccc(C2=NC(c3ccccc3)NC(c3ccccc3)/C2=C/c2ccccc2)cc1 (stereo not drawn)
inactive: dose: 6.25 mg/kg/injection, schedule: Q01DX009 (ip), vehicle: saline with Tween-80 106 % of control | dose: 12.5 mg/kg/injection, schedule: Q01DX009 (ip), vehicle: saline with Tween-80 99 % of control | [2] 99 % of control | [1] 91 % of control and 94 % of control | [3] 95 % of control

CN[C@@H]1[C@H](O)[C@H](NC)[C@H]2O[C@@]3(O)C(=O)C[C@@H](C)O[C@H]3O[C@@H]2[C@H]1O
inactive: dose: 6.25 mg/kg/injection, schedule: Q01DX009 (ip), vehicle: saline 95 % of control | dose: 12.5 mg/kg/injection, schedule: Q01DX009 (ip), vehicle: saline 90 % of control | dose: 100.0 mg/kg/injection, schedule: Q01DX009 (ip), vehicle: saline 99 % of control | dose: 200.0 mg/kg/injection, schedule: Q01DX009 (ip), vehicle: saline 117 % of control | dose: 400.0 mg/kg/injection, schedule: Q01DX009 (ip), vehicle: saline 115 % of control
